Common to all, as to assay type: biochemical
One experiment concerns the target T1, CDK4/CycD1 (Homo sapiens, UniProt P11802).
T1 construct: host or cells: Sf9 insect cells (baculovirus)
The experiment can be described thus: Radiometric protein kinase assay, CDK4/CycD1. Particulars: 1 μM ATP; read-out: Inhibitory activity (IC50:μM) CDK4/CycD1. An excerpt:
(§1) All protein kinases were expressed in Sf9 insect cells as human recombinant GST-fusion proteins or His-tagged proteins by means of the baculovirus expression system. Kinases were purified by affinity chromatography using either GSH-agarose (Sigma) or Ni-NTH-agarose (Qiagen). The purity of each kinase was checked by SDS-PAGE/silver staining and the identity of each kinase was verified by western blot analysis with kinase specific antibodies or by mass spectroscopy.
(§2) A radiometric protein kinase assay (^33PanQinase® Activity Assay) was used for measuring the kinase activity of the 24 protein kinases. All kinase assays were performed in 96-well FlashPlates™ from Perkin Elmer (Boston, Mass., USA) in a 50 μl reaction volume. The reaction cocktail was pipetted in 4 steps in the following order: • 20 μl of assay buffer • 5 μl of ATP solution (in H2O) • 5 μl of test compound (in 10% DMSO) • 10 μl of substrate/10 […] of enzyme solution (premixed)
(§3) The assay for all enzymes contained 60 mM HEPES-NaOH, pH 7.5, 3 mM MgCl2, 3 mM MnCl2, 3 μM Na-orthovanadate, 1.2 mM DTT, 50 μg/ml PEG20000, 1 μM [γ-^33P]-ATP (approx. 5×10^05 cpm per well).
(§4) For the 24 kinase assays, the following amounts of enzyme and substrate were used per well:
(§5) The reaction cocktails were incubated at 30° C. for 80 minutes. The reaction was stopped with 50 μl of 2% (v/v) H3PO4, plates were aspirated and washed two times with 200 μl of 0.9% (w/v) NaCl or 200 μl H2O. Incorporation of ^33Pi was determined with a microplate scintillation counter (Microbeta Trilux, Wallac).
(§6) The median value of the counts in column 1 (n=8) of each assay plate was defined as “low control”. This value reflects unspecific binding of radioactivity to the plate in the absence of a protein kinase but in the presence of the substrate. The median value of the counts in column 7 of each assay plate (n=8) was taken as the “high control”, i.e. full activity in the absence of any inhibitor. The difference between high and low control was taken as 100% activity.
(§7) As part of the data evaluation the low control value from a particular plate was subtracted from the high control value as well as from all 80 “compound values” of the corresponding plate. The residual activity (in %) for each well of a particular plate was calculated by using the following formula: Res. Activity (%)=100×[(cpm of compound−low control)/(high control−low control)]
(§8) The residual activities for each concentration and the compound IC50 values were calculated using Quattro Workflow V2.1.0.0 (Quattro Research GmbH, Munich, Germany; www.quattro-research.com). The model used was “Sigmoidal response (variable slope)” with parameters “top” fixed at 100% and “bottom” at 0%.

The target in a further experiment is T2, VEGF-R2 (Homo sapiens, UniProt P35968).
T2 construct: host or cells: Sf9 insect cells (baculovirus)
Briefly: Radiometric protein kinase assay, VEGF-R2. Particulars: 1 μM ATP; read-out: Inhibitory activity (IC50:μM) VEGF-R2.
Source text: as §1, §2, §3, §4, §5, §6, §7, §8

A further experiment has as its target T3, EPHB4 (Homo sapiens, UniProt P54760).
T3 construct: host or cells: Sf9 insect cells (baculovirus)
T3 sequence (P54760 16-987): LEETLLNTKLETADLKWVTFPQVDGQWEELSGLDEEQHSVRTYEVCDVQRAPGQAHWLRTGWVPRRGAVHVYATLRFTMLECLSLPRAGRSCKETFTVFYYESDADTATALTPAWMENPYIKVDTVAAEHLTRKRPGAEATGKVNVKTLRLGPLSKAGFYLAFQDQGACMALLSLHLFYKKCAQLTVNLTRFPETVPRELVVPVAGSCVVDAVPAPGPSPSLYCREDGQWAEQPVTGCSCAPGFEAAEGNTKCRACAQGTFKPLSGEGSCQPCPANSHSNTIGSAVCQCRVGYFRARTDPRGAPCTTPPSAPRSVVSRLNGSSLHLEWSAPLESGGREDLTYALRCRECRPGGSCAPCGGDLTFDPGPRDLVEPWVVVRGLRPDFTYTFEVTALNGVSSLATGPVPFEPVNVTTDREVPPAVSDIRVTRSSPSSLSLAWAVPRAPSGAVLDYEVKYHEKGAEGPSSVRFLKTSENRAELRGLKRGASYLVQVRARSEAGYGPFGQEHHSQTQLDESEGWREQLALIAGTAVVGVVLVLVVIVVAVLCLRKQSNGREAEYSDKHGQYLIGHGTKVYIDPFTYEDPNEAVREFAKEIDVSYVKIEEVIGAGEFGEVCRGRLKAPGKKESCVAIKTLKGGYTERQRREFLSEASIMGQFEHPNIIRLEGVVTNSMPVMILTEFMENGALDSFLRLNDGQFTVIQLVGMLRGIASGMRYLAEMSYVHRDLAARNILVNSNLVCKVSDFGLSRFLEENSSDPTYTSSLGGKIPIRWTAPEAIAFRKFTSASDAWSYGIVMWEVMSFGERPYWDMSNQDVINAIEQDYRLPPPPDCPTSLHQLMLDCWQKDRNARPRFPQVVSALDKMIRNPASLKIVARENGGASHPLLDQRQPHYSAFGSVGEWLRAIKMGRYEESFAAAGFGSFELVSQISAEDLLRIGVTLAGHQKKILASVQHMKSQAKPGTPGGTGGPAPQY
The experiment can be described thus: Radiometric protein kinase assay, EPHB4. The following applies: 1 μM ATP; read-out: Inhibitory activity (IC50:μM) EPHB4.
Source text: as §1, §2, §3, §4, §5, §6, §7, §8

A further experiment concerns the target T4, TIE2 (Homo sapiens, UniProt Q02763).
T4 construct: host or cells: Sf9 insect cells (baculovirus)
The experiment can be described thus: Radiometric protein kinase assay, TIE2. Particulars: 1 μM ATP; read-out: Inhibitory activity (IC50:μM) TIE2.
Source text: as §1
A radiometric protein kinase assay (^33PanQinase® Activity Assay) was used for measuring the kinase activity of the 24 protein kinases. All kinase assays were performed in 96-well FlashPlates™ from Perkin Elmer (Boston, Mass., USA) in a 50 μl reaction volume. The reaction cocktail was pipetted in 4 steps in the following order: • 20 μl of assay buffer • 5 μl of ATP solution (in H2O) • 5 μl of test compound (in 10% DMSO) • 10 μl of substrate/10 […] of enzyme solution (premixed) […]
The reaction cocktails were incubated at 30° C. for 80 minutes. […] Incorporation of ^33Pi was determined with a microplate scintillation counter (Microbeta Trilux, Wallac).
The median value of the counts in column 1 (n=8) of each assay plate was defined as “low control”. This value reflects unspecific binding of radioactivity to the plate in the absence of a protein kinase but in the presence of the substrate. […]
as §7
The residual activities for each concentration and the compound IC50 values were calculated using Quattro Workflow V2.1.0.0 (Quattro Research GmbH, Munich, Germany; www.quattro-research.com). […]

A further experiment concerns the target T5, Aurora-A (Homo sapiens, UniProt O14965).
T5 construct: host or cells: Sf9 insect cells (baculovirus)
T5 sequence (O14965 1-403): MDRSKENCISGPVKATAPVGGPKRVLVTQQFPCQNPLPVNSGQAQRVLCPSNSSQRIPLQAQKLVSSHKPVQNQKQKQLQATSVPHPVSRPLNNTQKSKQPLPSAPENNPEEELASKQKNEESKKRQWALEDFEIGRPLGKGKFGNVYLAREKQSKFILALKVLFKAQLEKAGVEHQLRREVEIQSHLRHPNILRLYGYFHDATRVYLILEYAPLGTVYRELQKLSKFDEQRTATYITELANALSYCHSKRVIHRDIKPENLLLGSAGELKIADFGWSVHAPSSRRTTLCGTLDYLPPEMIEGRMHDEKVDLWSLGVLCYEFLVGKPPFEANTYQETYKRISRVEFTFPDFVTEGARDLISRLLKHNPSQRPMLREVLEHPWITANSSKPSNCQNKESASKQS
The experiment can be described thus: Radiometric protein kinase assay, Aurora-A. Particulars: 1 μM ATP; read-out: Inhibitory activity (IC50:μM) Aurora-A.
Source text: as §1, §2, §3, §4, §5, §6, §7, §8

For the next experiment, the target named is T6, FAK (Homo sapiens, UniProt Q05397).
T6 construct: host or cells: Sf9 insect cells (baculovirus)
Briefly: Radiometric protein kinase assay, FAK. The following applies: 1 μM ATP; read-out: Inhibitory activity (IC50:μM) FAK.
Source text: as §1, §2, §3, §4, §5, §6, §7, §8

Structures are written as SMILES.

T2 sequence (P35968 20-1356): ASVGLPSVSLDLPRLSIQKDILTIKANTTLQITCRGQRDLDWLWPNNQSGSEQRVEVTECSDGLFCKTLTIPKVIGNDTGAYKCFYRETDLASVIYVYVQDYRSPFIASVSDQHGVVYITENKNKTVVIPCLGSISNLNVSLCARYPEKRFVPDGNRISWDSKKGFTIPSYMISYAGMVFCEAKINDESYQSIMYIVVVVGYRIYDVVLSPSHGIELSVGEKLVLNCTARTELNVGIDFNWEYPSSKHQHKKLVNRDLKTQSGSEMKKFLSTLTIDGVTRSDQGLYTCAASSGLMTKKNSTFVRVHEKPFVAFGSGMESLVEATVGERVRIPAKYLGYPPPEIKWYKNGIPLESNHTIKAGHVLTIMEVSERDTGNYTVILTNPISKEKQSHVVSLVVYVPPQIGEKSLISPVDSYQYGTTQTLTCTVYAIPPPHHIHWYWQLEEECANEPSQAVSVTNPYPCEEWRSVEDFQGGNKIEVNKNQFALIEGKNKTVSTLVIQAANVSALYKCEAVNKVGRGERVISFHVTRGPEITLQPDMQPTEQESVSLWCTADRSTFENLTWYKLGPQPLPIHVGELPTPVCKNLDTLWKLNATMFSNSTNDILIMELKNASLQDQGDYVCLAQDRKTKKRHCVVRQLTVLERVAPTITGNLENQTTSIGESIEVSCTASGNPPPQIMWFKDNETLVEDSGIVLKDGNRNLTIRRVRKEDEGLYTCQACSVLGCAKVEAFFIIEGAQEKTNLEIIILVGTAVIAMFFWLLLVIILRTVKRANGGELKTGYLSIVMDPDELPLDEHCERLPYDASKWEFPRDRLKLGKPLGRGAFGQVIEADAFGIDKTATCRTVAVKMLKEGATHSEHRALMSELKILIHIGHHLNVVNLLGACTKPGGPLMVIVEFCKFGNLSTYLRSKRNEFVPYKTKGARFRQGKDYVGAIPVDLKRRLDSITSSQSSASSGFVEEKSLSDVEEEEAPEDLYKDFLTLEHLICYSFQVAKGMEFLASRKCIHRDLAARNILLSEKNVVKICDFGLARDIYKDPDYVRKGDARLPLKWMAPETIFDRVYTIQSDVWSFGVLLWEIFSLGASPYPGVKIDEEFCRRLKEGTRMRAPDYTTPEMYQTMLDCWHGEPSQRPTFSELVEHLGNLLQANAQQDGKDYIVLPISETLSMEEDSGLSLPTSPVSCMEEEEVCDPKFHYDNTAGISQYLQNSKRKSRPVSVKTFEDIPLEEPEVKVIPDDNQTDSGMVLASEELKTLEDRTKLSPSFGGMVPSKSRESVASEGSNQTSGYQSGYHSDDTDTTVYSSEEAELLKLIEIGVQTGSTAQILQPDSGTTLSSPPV
T4 sequence (Q02763 23-1124): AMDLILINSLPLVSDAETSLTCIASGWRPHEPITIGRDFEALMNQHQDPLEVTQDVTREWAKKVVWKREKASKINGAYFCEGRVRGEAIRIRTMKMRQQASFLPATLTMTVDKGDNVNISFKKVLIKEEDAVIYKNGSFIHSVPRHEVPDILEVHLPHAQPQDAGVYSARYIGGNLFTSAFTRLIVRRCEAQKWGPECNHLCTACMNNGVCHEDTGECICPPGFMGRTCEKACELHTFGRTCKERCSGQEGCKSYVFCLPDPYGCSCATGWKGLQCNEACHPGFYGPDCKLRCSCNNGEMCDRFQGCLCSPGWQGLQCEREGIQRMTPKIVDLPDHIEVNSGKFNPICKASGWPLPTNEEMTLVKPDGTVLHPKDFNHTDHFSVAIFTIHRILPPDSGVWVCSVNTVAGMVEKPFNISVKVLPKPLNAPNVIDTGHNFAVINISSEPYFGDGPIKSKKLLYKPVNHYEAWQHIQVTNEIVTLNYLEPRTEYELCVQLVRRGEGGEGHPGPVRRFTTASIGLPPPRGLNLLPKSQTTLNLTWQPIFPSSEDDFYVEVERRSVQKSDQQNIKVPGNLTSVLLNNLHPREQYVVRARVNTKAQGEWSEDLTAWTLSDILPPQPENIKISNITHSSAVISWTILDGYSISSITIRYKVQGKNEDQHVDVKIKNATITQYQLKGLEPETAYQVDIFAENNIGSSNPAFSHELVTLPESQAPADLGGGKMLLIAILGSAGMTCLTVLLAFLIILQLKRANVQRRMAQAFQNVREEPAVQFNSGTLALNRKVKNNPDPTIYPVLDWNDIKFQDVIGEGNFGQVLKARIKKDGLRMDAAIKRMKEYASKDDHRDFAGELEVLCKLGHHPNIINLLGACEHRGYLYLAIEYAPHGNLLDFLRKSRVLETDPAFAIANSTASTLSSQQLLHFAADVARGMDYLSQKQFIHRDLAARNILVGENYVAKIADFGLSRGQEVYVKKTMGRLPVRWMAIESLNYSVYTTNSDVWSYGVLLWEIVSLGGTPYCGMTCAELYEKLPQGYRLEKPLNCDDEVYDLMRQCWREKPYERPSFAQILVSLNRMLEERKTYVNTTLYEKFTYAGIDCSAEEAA
T1 sequence (P11802 whole entry): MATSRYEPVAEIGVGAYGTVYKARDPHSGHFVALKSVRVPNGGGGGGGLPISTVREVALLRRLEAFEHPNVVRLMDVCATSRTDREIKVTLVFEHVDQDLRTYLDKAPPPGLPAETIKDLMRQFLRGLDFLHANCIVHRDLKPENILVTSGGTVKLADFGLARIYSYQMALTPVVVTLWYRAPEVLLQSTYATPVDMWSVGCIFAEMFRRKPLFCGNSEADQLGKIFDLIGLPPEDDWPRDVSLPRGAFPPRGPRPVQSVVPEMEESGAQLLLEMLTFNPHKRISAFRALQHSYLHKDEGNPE
T1 sequence (P24385 whole entry partner): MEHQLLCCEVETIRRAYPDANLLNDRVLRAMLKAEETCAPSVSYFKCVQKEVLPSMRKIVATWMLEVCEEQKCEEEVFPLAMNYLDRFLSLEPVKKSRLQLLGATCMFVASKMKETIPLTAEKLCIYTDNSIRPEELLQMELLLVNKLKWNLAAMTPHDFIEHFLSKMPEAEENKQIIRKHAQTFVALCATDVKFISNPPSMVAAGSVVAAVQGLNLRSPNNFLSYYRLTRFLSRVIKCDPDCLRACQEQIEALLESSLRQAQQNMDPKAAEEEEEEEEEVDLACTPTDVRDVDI
T6 sequence (Q05397 whole entry): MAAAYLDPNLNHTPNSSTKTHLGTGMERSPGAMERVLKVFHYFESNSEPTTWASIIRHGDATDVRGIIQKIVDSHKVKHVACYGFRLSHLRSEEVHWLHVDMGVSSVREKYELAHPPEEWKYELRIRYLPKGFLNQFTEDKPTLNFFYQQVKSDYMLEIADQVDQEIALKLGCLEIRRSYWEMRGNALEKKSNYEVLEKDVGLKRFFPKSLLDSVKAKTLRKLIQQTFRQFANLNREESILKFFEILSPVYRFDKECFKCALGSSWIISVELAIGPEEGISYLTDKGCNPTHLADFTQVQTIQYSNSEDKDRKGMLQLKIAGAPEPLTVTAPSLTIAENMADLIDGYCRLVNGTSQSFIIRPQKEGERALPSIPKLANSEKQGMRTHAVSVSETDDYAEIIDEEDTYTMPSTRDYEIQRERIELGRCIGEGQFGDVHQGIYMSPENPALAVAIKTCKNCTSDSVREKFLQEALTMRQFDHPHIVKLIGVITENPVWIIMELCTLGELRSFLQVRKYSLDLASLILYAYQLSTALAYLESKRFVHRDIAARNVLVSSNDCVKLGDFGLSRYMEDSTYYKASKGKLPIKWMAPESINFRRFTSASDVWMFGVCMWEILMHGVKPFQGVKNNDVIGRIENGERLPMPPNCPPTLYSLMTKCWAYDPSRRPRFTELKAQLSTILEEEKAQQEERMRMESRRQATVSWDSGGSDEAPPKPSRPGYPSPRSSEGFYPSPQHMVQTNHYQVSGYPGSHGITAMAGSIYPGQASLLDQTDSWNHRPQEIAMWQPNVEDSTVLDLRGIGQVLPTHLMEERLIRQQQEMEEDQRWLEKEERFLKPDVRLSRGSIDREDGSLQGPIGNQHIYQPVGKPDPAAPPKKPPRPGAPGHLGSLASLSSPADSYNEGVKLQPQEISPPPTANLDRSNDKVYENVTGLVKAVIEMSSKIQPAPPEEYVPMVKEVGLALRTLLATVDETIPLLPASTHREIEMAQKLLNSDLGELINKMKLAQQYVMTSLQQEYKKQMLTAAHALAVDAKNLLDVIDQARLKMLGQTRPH

For `COC1CC/C=C/C[C@H](c2ccccc2)OC(=O)c2c(O)cc(O)c(Cl)c2CC(=O)C1` (stereo partly shown) [A-2], the IC50 was 50 µM on CDK4/CycD1; 19 µM at VEGF-R2; 16 µM on EPHB4; 16 µM at TIE2; 14 µM at Aurora-A; 14 µM at FAK.

Consider `O=C1Cc2c(Cl)c(O)cc(O)c2C(=O)O[C@H](c2ccccc2)C/C=C/CCC(Cl)C1` (stereo partly shown) [A-3], for which the IC50 on CDK4/CycD1 worked out at 30 µM; on VEGF-R2 it was 20 µM; on EPHB4, 40 µM; at TIE2, 15 µM; on FAK, 9 µM.

On to `CC(C)[C@@H]1CC2OC2CC/C=C/C(=O)Cc2c(Cl)c(O)cc(O)c2C(=O)O1` (stereo partly shown) [A-4], for which the IC50 on CDK4/CycD1 worked out at 48 µM; on VEGF-R2, 30 µM; on Aurora-A, 30 µM; at FAK, 37 µM.

With `O=C1/C=C/CCC2OC2C[C@H](c2ccccc2)OC(=O)c2c(O)cc(O)c(Cl)c2C1` (stereo partly shown) [A-5], the IC50 came out at 45 µM on CDK4/CycD1; 19 µM on VEGF-R2; 49 µM on EPHB4; 47 µM at Aurora-A; 38 µM at FAK.

As to `O=C1/C=C/CCC2OC2C[C@@H](Cc2ccccc2)OC(=O)c2c(O)cc(O)cc2C1` (stereo partly shown) [A-6], the IC50 at CDK4/CycD1 came to 37 µM; on VEGF-R2 it was 25 µM; at EPHB4, 40 µM; at TIE2, 25 µM; on FAK, 34 µM.

These data come from patent publication US8450305B2, “Macrocyclic compounds useful as inhibitors of kinases and HSP90” (Universite de Strasbourg, priority 2006, dated 2013).
